Test results: patent US20180185440A1, “PHARMACEUTICAL COMPOSITIONS AND METHODS FOR DELIVERY OF BREMELANOTIDE” (NOVEN PHARMACEUTICALS, INC., priority 2016, published 2018)

Experiment: in vivo delivery of bremelanotide by oral capsules (rats)
Set-up: species or system rat
Details: oral capsules with patches, FIG. 8
Experimental: The capsules of Examples 4-15 and Control 2, described above, were tested in vivo in a rat model. Capsules were administered by oral gavage administration using a dosing tool, followed by administration of 0.3 mL of water. Blood samples were drawn until 5 hours after administration and assayed for bremelanotide concentration as a function of time. FIGS. 5-8 illustrate the blood levels (pg/ml) of bremelanotide achieved (reported as the average from n=2 or 3 rats per formulation tested). […] The results illustrated in FIGS. 6 and 7 indicate that increasing the relative amount of penetration enhancer results in increased bremelanotide delivery.

## CCCCCCCCCCCCO[C@@H]1O[C@H](CO)[C@@H](O[C@H]2O[C@H](CO)[C@@H](O)[C@H](O)[C@H]2O)[C@H](O)[C@H]1O [n-DMS, n-dodecyl-β-D-maltoside]
  enhancer effect for bremelanotide through the GI tract: effective enhancers
